In US8962665B2, “Thiazole and oxazole kinase inhibitors” (AB Science, priority 2010, dated 2015) one finds IC50 data, which are given here for 13 molecules.

This test addresses T1, Syk (Homo sapiens, UniProt P43405).
T1 construct: SYK kinase was purified as a full length protein in a baculovirus system near homogeneity; made in house; host or cells: baculovirus system
The experiment in a line: Syk kinase HTRF (Kinease TK) assay. The class given is biochemical. How it is done: SYK kinase was purified as a full length protein in a baculovirus system near homogeneity. JAKs kinases (JAK1, JAK2 and JAK3) were purchased either from Invitrogen or from Millipore. All kinases assays were performed with the Kinease TK (tyrosine kinase) HTRF (Homogeneous Time Resolved Fluorescence) assay developed by Cisbio international. […] Reactions were initiated upon introduction of the enzyme and terminated with the addition of one reaction volume (25 μl) of HTRF detection buffer. Plates were incubated for one hour at room temperature and the time resolved Fluorescence resonance energy transfer signal was measured in a Pherastar FS microplate reader (BMG Labtech). All data are the average of triplicate results with a standard deviation<10%.
A general note: Time-resolved FRET reads energy transfer from a long-lived donor to a nearby acceptor.

Broadly, the IC50 is the point on the concentration scale where inhibition reaches its midpoint. In the case of `Cc1ccnc(Nc2cccc(-c3cnc(-c4cccnc4)s3)n2)c1` [Example 020, (4-Methyl-pyridin-2-yl)-[6-(2-pyridin-3-yl-thiazol-5-yl)-pyridin-2-yl]-amine], the IC50 was less than 1000 nM.
For `Cc1ccnc(Nc2cccc(-c3cnc(-c4ccc[nH]c4=O)o3)n2)c1` [Example 045, 3-{5-[6-(4-methyl-pyridin-2-ylamino)-pyridin-2-yl]-oxazol-2-yl}-1H-pyridin-2-one] the value was less than 1000 nM; for `Cc1ccnc(Nc2cccc(-c3cnc(-c4nc5ccccc5o4)o3)n2)c1` [Example 048, [6-(2-benzoxazole-2-yl-oxazol-5-yl)-pyridin-2-yl]-(4-methyl-pyridin-2-yl)-amine], less than 1000 nM.
With `Cc1ccnc(Nc2cccc(-c3cnc(-c4ccccc4)s3)n2)c1` [Example 056, (4-Methyl-pyridin-2-yl)-[6-(2-phenyl-thiazol-5-yl)-pyridin-2-yl]-amine], the 50% inhibitory concentration (IC50) was less than 1000 nM.
For `Cc1ccnc(Nc2cccc(-c3cnc(-c4c(C)cccc4C)o3)n2)c1` [Example 062, {6-[2-(2,6-Dimethyl-phenyl)-oxazol-5-yl]-pyridin-2-yl}-(4-methyl-pyridin-2-yl)-amine] the value was 1000 to 10000 nM; for `Cc1ccnc(Nc2cccc(-c3cnc(-c4cccc(C#N)c4)s3)n2)c1` [Example 064, 3-{5-[6-(4-Methyl-pyridin-2-ylamino)-pyridin-2-yl]-thiazol-2-yl}-benzonitrile], 1000 to 10000 nM.
In turn, `Cc1ccnc(Nc2cccc(-c3cnc(-c4ccc5[nH]ccc5c4)o3)n2)c1` [Example 069, {6-[2-(1H-Indol-5-yl)-oxazol-5-yl]-pyridin-2-yl}-(4-methyl-pyridin-2-yl)-amine] showed a concentration for half-maximal inhibition (IC50) of less than 1000 nM.
Under `Cc1ccnc(Nc2cccc(-c3cnc(-c4ccccn4)s3)n2)c1` [Example 080, (4-Methyl-pyridin-2-yl)-[6-(2-pyridin-2-yl-thiazol-5-yl)-pyridin-2-yl]-amine] stands less than 1000 nM; under `Cc1ccnc(Nc2cccc(-c3cnc(N4CCOCC4)o3)n2)c1` [Example 099, (4-Methyl-pyridin-2-yl)-[6-(2-morpholin-4-yl-oxazol-5-yl)-pyridin-2-yl]-amine], less than 1000 nM.
Under `Cc1ccc(Nc2cccc(-c3cnc(-c4ccc5[nH]ccc5c4)o3)n2)nc1` [Example 116, {6-[2-(1H-Indol-5-yl)-oxazol-5-yl]-pyridin-2-yl}-(5-methyl-pyridin-2-yl)-amine] stands 1000 to 10000 nM.
Under `Cc1ccc(Nc2cccc(-c3cnc(N4CCNC(=O)C4)o3)n2)nc1` [Example 118, 4-{5-[6-(5-Methyl-pyridin-2-ylamino)-pyridin-2-yl]-oxazol-2-yl}-piperazine-2-one] stands less than 1000 nM; under `Clc1ccnc(Nc2cccc(-c3cnc(-c4ccsc4)o3)n2)c1` [Example 120, (4-Chloro-pyridin-2-yl)-[6-(2-thiophen-3-yl-oxazol-5-yl)-pyridin-2-yl]-amine], 1000 to 10000 nM; under `O=C1CN(c2ncc(-c3cccc(Nc4cnccn4)n3)o2)CCN1` [Example 140, 4-{5-[6-(Pyrazin-2-ylamino)-pyridin-2-yl]-oxazol-2-yl}-piperazine-2-one], less than 1000 nM.
